The results in this text go back to patent US12723128B2, “Aromatic diol compounds, diepoxide compounds, polymers prepared from such compounds, and methods for making the same” (SWIMC LLC, priority 2020, dated 2026).

The data set is described as follows: Stability by differential scanning calorimetry (DSC). It is filed as physicochemical. Conditions: FIG. 7. Here is the method:
In Example 9, the stability of the diglycidyl ether of Example 4B (cyclohexanone 2,6 methylene bis (2-furan, 5-methanol glycidyl ether)) was tested using differential scanning calorimetry (“DSC”).

As for `O=C1/C(=C/c2ccc(COCC3CO3)o2)CCC/C1=C\c1ccc(COCC2CO2)o1` (stereo not shown) [Example 4B, cyclohexanone 2,6 methylene bis (2-furan, 5-methanol glycidyl ether)], the “Stability (stable up to)” value is “up to 180 °C”.
